Measured values as given in ChEMBL document CHEMBL4477199, “Design and synthesis of novel bicalutamide and enzalutamide derivatives as antiproliferative agents for the treatment of prostate cancer” (Eur J Med Chem, 2016).

Key:
VCaP = test: Antiproliferative activity against human VCaP cells after 96 hrs by propidium iodide staining based fluorescence 2D monolayer assay; type: functional, cell-based
[1] = 96 h
Description: Solubility in RPMI1640 culture medium at <30 uM incubated for 4 days by microscopic analysis

CWR22R = test: Antiproliferative activity against human 22Rv1 cells after 96 hrs by propidium iodide staining based fluorescence 2D monolayer assay; type: functional, cell-based; details: 22Rv1, 96 h
DU-145 = test: Antiproliferative activity against human DU145 cells after 96 hrs by propidium iodide staining based fluorescence 2D monolayer assay; type: functional, cell-based; details: DU-145, 96 h
[2] = 33000 µM
Description: Solubility in 100% DMSO at 33 mM at -20 degC

LNCaP = test: Antiproliferative activity against human LNCAP cells after 96 hrs by propidium iodide staining based fluorescence 2D monolayer assay; type: functional, cell-based

Compound	IC50 (VCaP) [µM]	solubility [1]	IC50 (CWR22R) [µM]	IC50 (DU-145) [µM]	solubility [2]	IC50 (LNCaP) [µM]
CC(O)(CSc1ccc(C(F)(F)F)cn1)C(=O)Nc1ccc(C#N)c(C(F)(F)F)c1 (stereo unspecified)	89.3	Soluble	53.9	84.1	Soluble	80.7
CC(O)(CSc1ccc(F)c(F)c1)C(=O)Nc1ccc([N+](=O)[O-])cc1C(F)(F)F (stereo unspecified)	100	Soluble	83.6	100	Soluble	83
CC(O)(CS(=O)(=O)c1ccc(F)cc1F)C(=O)Nc1ccc([N+](=O)[O-])cc1C(F)(F)F (stereo unspecified)	58	Soluble	30.2	46.6	Soluble	17.9
CC(O)(CSc1ccc(F)cc1)C(=O)Nc1ccc([N+](=O)[O-])cc1C(F)(F)F (stereo unspecified)	21.1	Soluble	17.6	26.4	Soluble	11.9
CC(O)(COc1ccc(C#N)cc1)C(=O)Nc1ccc(C#N)cc1C(F)(F)F (stereo unspecified)	61.4	Soluble	42.9	100	Soluble	34.7
CC(O)(CS(=O)(=O)c1ccccc1OC(F)(F)F)C(=O)Nc1ccc([N+](=O)[O-])cc1C(F)(F)F (stereo unspecified)	51.7	Soluble	28.8	39	Soluble	17.8
CC(O)(COc1ccc(OC(F)(F)F)cc1)C(=O)Nc1ccc(C#N)c(C(F)(F)F)c1 (stereo unspecified)	17.6	Soluble	17.2	18.4	Soluble	13.6
CC(O)(CS(=O)(=O)c1cccc(C(F)(F)F)c1)C(=O)Nc1ccc(C#N)cc1C(F)(F)F (stereo unspecified)	44.9	Soluble	34.4	45.9	Soluble	32.1
CC(O)(CS(=O)(=O)c1ccccc1C(F)(F)F)C(=O)Nc1ccc(C#N)cc1C(F)(F)F (stereo unspecified)	100	Soluble	98.8	100	Soluble	74
CC(O)(CS(=O)(=O)c1ccc(F)cc1)C(=O)Nc1ccc([N+](=O)[O-])cc1C(F)(F)F (stereo unspecified)	58.2	Soluble	46.7	60.7	Soluble	38.6
CC(O)(CSc1cccc(OC(F)(F)F)c1)C(=O)Nc1ccc(C(F)(F)F)cc1 (stereo unspecified)	18.8	Soluble	15.9	27.8	Soluble	13.9
CC(O)(CS(=O)(=O)c1ccc(C(F)(F)F)cn1)C(=O)Nc1ccc([N+](=O)[O-])cc1C(F)(F)F (stereo unspecified)	100	Soluble	100	100	Soluble	100
CC(O)(COc1ccccc1C(F)(F)F)C(=O)Nc1ccc(C(F)(F)F)cc1 (stereo unspecified)	11.5	Soluble	6.42	26.4	Soluble	6.98
CC(O)(CSc1cccc(C(F)(F)F)c1)C(=O)Nc1ccc(C(F)(F)F)cc1 (stereo unspecified)	19.5	Soluble	18.6	30.7	Soluble	22.6
CC(O)(CSc1ccc(C(F)(F)F)cc1)C(=O)Nc1ccc([N+](=O)[O-])cc1C(F)(F)F (stereo unspecified)	17.1	Soluble	14.6	19.2	Soluble	8.66
CC(O)(CSc1ccc(OC(F)(F)F)cc1)C(=O)Nc1ccc(C#N)c(C(F)(F)F)c1 (stereo unspecified)	40.3	Soluble	46.6	64	Soluble	42.8
C[C@](O)(CSc1ccc(F)cc1F)C(=O)Nc1ccc(C#N)c(C(F)(F)F)c1	18.3	Soluble	17.2	28.5	Soluble	25.2
CC(O)(COc1ccc(C(F)(F)F)cn1)C(=O)Nc1ccc([N+](=O)[O-])c(C(F)(F)F)c1 (stereo unspecified)	100	Soluble	35.2	100	Soluble	36.5

Compound	IC50 (VCaP) [µM]	solubility [1]	IC50 (CWR22R) [µM]	IC50 (DU-145) [µM]	solubility [2]	IC50 (LNCaP) [µM]
CC(O)(CSc1cccc(OC(F)(F)F)c1)C(=O)Nc1ccc([N+](=O)[O-])cc1C(F)(F)F (stereo unspecified)	15.9	Soluble	15.8	21.6	Soluble	9.15
CC(O)(COc1cccc(OC(F)(F)F)c1)C(=O)Nc1ccc(C#N)cc1C(F)(F)F (stereo unspecified)	56.3	Soluble	28.7	35.9	Soluble	63.4
CC(O)(CS(=O)(=O)c1cccc(C(F)(F)F)c1)C(=O)Nc1ccc([N+](=O)[O-])cc1C(F)(F)F (stereo unspecified)	38.7	Soluble	18.1	32	Soluble	16.8
CC(O)(CS(=O)(=O)c1ccccc1C(F)(F)F)C(=O)Nc1ccc(C#N)c(C(F)(F)F)c1 (stereo unspecified)	58.6	Soluble	46.6	55	Soluble	42.7
CC(O)(COc1cccc(C(F)(F)F)c1)C(=O)Nc1ccc([N+](=O)[O-])cc1C(F)(F)F (stereo unspecified)	19.3	Soluble	15.2	18.1	Soluble	12.9
CC(O)(COc1ccc(F)cc1F)C(=O)Nc1ccc(C#N)c(C(F)(F)F)c1 (stereo unspecified)	38.7	Soluble	34	44.3	Soluble	37.3
CC(O)(COc1ccc(F)cc1F)C(=O)Nc1ccc([N+](=O)[O-])c(C(F)(F)F)c1 (stereo unspecified)	20.9	Soluble	20.2	22.4	Soluble	10.1
CC(O)(COc1ccc(C(F)(F)F)cc1)C(=O)Nc1ccc(C#N)cc1C(F)(F)F (stereo unspecified)	23	Soluble	29.9	32.4	Soluble	28.6
CC(O)(COc1ccc(F)c(F)c1)C(=O)Nc1ccc(C#N)c(C(F)(F)F)c1 (stereo unspecified)	25.6	Soluble	35.5	45.2	Soluble	19
CC(O)(COc1ccccc1C(F)(F)F)C(=O)Nc1ccc(C#N)cc1C(F)(F)F (stereo unspecified)	21.9	Soluble	19.6	33.2	Soluble	14
CC(O)(COc1ccc(OC(F)(F)F)cc1)C(=O)Nc1ccc(C#N)cc1C(F)(F)F (stereo unspecified)	22.4	Soluble	28	34.6	Soluble	27.7
CC(O)(COc1ccc(C(F)(F)F)cn1)C(=O)Nc1ccc(C#N)cc1C(F)(F)F (stereo unspecified)	100	Soluble	100	100	Soluble	100
C[C@](O)(CS(=O)(=O)c1ccc(F)cc1F)C(=O)Nc1ccc(C#N)c(C(F)(F)F)c1	60.9	Soluble	42.2	60.2	Soluble	42.3
CC(O)(COc1cccc(OC(F)(F)F)c1)C(=O)Nc1ccc(C(F)(F)F)cc1 (stereo unspecified)	4.28	Soluble	15.4	29.4	Soluble	2.16
CC(O)(CSc1ccccc1C(F)(F)F)C(=O)Nc1ccc(C#N)cc1C(F)(F)F (stereo unspecified)	18.3	Soluble	11.6	18.4	Soluble	10.7
CC(O)(CSc1cccc(C(F)(F)F)c1)C(=O)Nc1ccc([N+](=O)[O-])cc1C(F)(F)F (stereo unspecified)	16.5	Soluble	12.6	14.3	Soluble	10.1
CC(O)(COc1ccc(C#N)cc1)C(=O)Nc1ccc([N+](=O)[O-])c(C(F)(F)F)c1 (stereo unspecified)	26.9	Soluble	30.9	32.7	Soluble	18.7
CC(O)(COc1ccc(C(F)(F)F)cc1)C(=O)Nc1ccc([N+](=O)[O-])cc1C(F)(F)F (stereo unspecified)	18.6	Soluble	18.9	22.1	Soluble	13.6
